The text below walks through data of ChEMBL document CHEMBL1821583 (Bioorg Med Chem Lett, 2011).

The structures appear in SMILES notation.

Data set [1] deals with T1, Protein smoothened (Homo sapiens, UniProt Q99835). Nature of the data set: Displacement of BODIPY-cyclopamine from Smo expressed in COS-1 cells after 4 to 6 hrs by Flow Cytometry analysis in presence of 20% normal human serum. The data set is classed as cell-based. In general terms: In flow cytometry, cells or beads pass a laser one at a time.
T1 sequence (Q99835 whole entry): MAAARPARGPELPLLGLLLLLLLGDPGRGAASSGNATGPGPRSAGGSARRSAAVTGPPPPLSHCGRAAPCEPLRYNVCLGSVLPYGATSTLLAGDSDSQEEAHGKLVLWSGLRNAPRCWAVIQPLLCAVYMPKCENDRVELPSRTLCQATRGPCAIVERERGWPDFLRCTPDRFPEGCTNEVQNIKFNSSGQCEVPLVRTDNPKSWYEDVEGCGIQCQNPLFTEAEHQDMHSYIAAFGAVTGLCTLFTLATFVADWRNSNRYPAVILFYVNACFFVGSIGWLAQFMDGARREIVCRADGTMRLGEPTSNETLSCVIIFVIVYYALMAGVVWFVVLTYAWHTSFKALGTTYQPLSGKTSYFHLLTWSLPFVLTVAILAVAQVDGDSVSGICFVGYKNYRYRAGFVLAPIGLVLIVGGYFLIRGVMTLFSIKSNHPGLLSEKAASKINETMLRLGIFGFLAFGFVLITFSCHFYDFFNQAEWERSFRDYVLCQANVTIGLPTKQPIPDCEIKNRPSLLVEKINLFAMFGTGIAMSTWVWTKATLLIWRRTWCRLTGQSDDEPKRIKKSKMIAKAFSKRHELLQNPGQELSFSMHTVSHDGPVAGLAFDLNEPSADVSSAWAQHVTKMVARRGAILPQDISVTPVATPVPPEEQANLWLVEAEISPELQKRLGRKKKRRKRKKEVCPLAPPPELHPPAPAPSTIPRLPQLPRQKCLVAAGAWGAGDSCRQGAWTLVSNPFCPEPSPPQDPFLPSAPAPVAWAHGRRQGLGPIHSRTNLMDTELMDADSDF
The nature of data set [2]: Inhibition of hedgehog signaling pathway in mouse Shh Light2 cells by Gli-dependent reporter gene assay. It counts as functional, cell-based. To be noted: Shh Light II. On the technique in general: In a reporter assay the amount or activity of a reporter protein is the signal.
Data set [3] concerns the target T1, Protein smoothened. Kind of data set: Displacement of BODIPY-cyclopamine from Smo expressed in COS-1 cells after 4 to 6 hrs by Flow Cytometry analysis in presence of 2% fetal calf serum. The data set is classed as cell-based.
A short description of data set [4]: Intrinsic clearance in rat liver microsomes assessed per mg of protein. The data set is classed as ADME, Microsome. (Microsomes from liver hold many membrane-bound enzymes, among them those of drug oxidation.)
Data set [5] in a line: Intrinsic clearance in human liver microsomes assessed per mg of protein. The data set is classed as ADME, Microsome.
The target of data set [6] is Voltage-gated inwardly rectifying potassium channel KCNH2 (Homo sapiens, UniProt Q12809).
Sequence of Voltage-gated inwardly rectifying potassium channel KCNH2 (Q12809 whole entry): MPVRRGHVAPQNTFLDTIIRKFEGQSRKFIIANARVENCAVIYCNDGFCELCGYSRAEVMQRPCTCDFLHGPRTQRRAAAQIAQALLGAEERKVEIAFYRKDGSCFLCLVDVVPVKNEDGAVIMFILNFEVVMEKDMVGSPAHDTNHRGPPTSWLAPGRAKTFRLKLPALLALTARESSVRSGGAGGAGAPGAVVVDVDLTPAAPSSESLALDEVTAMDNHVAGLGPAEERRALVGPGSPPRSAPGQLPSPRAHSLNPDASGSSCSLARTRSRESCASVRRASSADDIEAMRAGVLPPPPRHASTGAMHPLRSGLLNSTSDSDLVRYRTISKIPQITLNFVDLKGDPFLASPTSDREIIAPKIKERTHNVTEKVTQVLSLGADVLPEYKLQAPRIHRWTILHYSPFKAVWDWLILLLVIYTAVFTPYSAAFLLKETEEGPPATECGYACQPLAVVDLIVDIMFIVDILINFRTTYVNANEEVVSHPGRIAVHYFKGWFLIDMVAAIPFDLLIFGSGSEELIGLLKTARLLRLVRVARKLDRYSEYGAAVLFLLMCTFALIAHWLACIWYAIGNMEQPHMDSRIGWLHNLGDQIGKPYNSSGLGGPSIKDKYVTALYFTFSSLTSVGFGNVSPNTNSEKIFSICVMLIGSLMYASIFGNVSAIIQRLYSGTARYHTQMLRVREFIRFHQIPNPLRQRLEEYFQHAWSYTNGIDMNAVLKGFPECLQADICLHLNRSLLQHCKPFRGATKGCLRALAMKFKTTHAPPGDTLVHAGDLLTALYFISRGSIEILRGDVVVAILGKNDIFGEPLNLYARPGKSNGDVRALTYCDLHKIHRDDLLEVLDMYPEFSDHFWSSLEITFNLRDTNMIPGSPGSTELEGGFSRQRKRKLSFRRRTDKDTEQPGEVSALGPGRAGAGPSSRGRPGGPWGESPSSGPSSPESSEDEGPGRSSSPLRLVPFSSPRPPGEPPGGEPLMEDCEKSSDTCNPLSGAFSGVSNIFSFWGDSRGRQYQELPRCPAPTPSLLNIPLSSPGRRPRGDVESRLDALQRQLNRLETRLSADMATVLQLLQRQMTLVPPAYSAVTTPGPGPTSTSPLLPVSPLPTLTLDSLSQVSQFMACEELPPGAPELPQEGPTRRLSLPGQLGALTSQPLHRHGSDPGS
Data set [7] in a line: Clearance in iv dosed rat. It counts as ADME, organism-based. Particulars: in vivo.
Data set [8] can be described thus: Lipophilicity, log D of the compound. The data set is classed as physicochemical. To be noted: octanol/water.

Usually IC50 stands for the midpoint of a concentration-inhibition curve. As for `NC1(CNC(=O)N2CCC(c3nc(-c4ccc5ccccc5n4)no3)CC2)CCCC1`, the IC50 in data set [1] came out at 790 nM; in data set [2], 350 nM; in data set [3], 630 nM.
One may read the microsomal CLint as the rate of metabolic loss divided by the concentration. A higher microsomal CLint goes with rapid turnover. Regarding `CCN(CC)C1(CNC(=O)N2CCC(c3nc(-c4ccc5ccccc5n4)no3)CC2)CCCC1`, the IC50 in data set [1] was 46 nM; in data set [6] it was 9400 nM; in data set [2] it was 120 nM; in data set [3], 55 nM. Also, the microsomal CLint in data set [4] was > 200 µL/min/mg; in data set [5], 98 µL/min/mg.
On to `Cn1c(-c2noc(C3CCN(C(=O)NCC4(N5CCOCC5)CCCC4)CC3)n2)nc2ccccc21`, for which the IC50 in data set [1] amounted to 15 nM; in data set [2], 18 nM; in data set [3], 17 nM.
Taken in the same sequence, the figures for `CC(=O)NC1(CNC(=O)N2CCC(c3nc(-c4ccc5ccccc5n4)no3)CC2)CCCC1` were 13000 nM, 190 nM and 320 nM.
For `O=C(NCC1(C(=O)N2CCCCC2)CCCC1)N1CCC(c2nc(-c3ccc4ccccc4n3)no2)CC1`, the IC50 was found to be 7000 nM in data set [1] and 230 nM in data set [3].
Usually clearance stands for the rate of elimination divided by the concentration. On to `O=C(NCC1(N2CCCCC2)CCCC1)N1CCN(c2nc(-c3ccc4ccccc4n3)no2)CC1`, for which the values for the IC50 in data set [1], in data set [2] and in data set [3] were 10 nM, 40 nM and 8 nM, respectively. Moreover, in data set [7], the clearance is > 100 mL/min/kg.
Turning to `CC(C)N1CCCC1CNC(=O)N1CCC(c2nc(-c3ccc4ccccc4n3)no2)CC1` (stereo not given), the results for the 50% inhibitory concentration (IC50) in data set [1], in data set [2] and in data set [3] were 650 nM, 850 nM and 340 nM, respectively. The microsomal CLint amounted to 19 µL/min/mg in data set [4] and 10 µL/min/mg in data set [5]. Besides, the clearance in data set [7] is > 100 mL/min/kg.
Turning to `CN1CCc2ccccc2C1CNC(=O)N1CCC(c2nc(-c3ccc4ccccc4n3)no2)CC1` (stereo not given), the values for the IC50 in data set [1], in data set [2] and in data set [3] were 470 nM, 380 nM and 360 nM, respectively.
Taken in the same sequence, the figures for `O=C(NCC1NCCc2ccccc21)N1CCC(c2nc(-c3ccc4ccccc4n3)no2)CC1` (stereo not given) were 600 nM, 960 nM and 380 nM.
For `O=C(NCC(c1ccccn1)N1CCOCC1)N1CCC(c2nc(-c3ccc4ccccc4n3)no2)CC1` (stereo not given), the IC50 in data set [1] came to 4200 nM; in data set [2], 790 nM; in data set [3], 2700 nM.
As for `O=C(NCC1(NC2CCCCC2)CCCC1)N1CCC(c2nc(-c3ccc4ccccc4n3)no2)CC1`, the IC50 worked out at 520 nM in data set [1], 430 nM in data set [2] and 140 nM in data set [3].
Regarding `O=C(NCC1(c2ccccc2)CCCC1)N1CCC(c2nc(-c3ccc4ccccc4n3)no2)CC1`, the IC50 in data set [1] stood at 4500 nM; in data set [2], 410 nM; in data set [3], 810 nM.
For `CC(C)NC1(CNC(=O)N2CCC(c3nc(-c4ccc5ccccc5n4)no3)CC2)CCCC1` the same measures were 58 nM, 25 nM and 16 nM.
Turning to `O=C(NCC(c1cccnc1)N1CCOCC1)N1CCC(c2nc(-c3ccc4ccccc4n3)no2)CC1` (stereo not given), the IC50 turned out to be 9900 nM in data set [1], 4200 nM in data set [2] and 2600 nM in data set [3].
As for `O=C(NCC(c1ccccc1)N1CCCCC1)N1CCC(c2nc(-c3ccc4ccccc4n3)no2)CC1` (stereo not given), the IC50 in data set [1] came to 330 nM; in data set [2], 130 nM; in data set [3] it was 210 nM.
In the case of `O=C(NCC1(CO)CCCC1)N1CCC(c2nc(-c3ccc4ccccc4n3)no2)CC1`, the IC50 was 6900 nM in data set [1], 600 nM in data set [2] and 910 nM in data set [3].
Taken in the same sequence, the figures for `Cn1c(-c2noc(C3CCN(C(=O)NCC4(N5CCCCC5)CCCC4)CC3)n2)nc2ccccc21` were 19 nM, 23 nM and 21 nM.
Regarding `CCN1CCOCC1CNC(=O)N1CCC(c2nc(-c3ccc4ccccc4n3)no2)CC1` (stereo not given), the IC50 in data set [1] is 390 nM; in data set [2], 230 nM; in data set [3], 300 nM.
Consider `O=C(NCC1(N2CCOCC2)CCCCC1)N1CCC(c2nc(-c3ccc4ccccc4n3)no2)CC1`, for which the IC50 in data set [1] turned out to be 72 nM; in data set [6], 4300 nM; in data set [2], 140 nM; in data set [3], 23 nM. For the same compound, the microsomal CLint in data set [4] and in data set [5] was > 500 µL/min/mg in each case.
`CC(C)(C)OC(=O)NC1(CNC(=O)N2CCC(c3nc(-c4ccc5ccccc5n4)no3)CC2)CCCC1`: the 50% inhibitory concentration (IC50) was determined as 14000 nM in data set [1], 2000 nM in data set [2] and 2000 nM in data set [3].
`CC(C)(CNC(=O)N1CCC(c2nc(-c3ccc4ccccc4n3)no2)CC1)N1CCOCC1`: the figures for the 50% inhibitory concentration (IC50) in data set [1], in data set [2] and in data set [3] were 670 nM, 450 nM and 290 nM, respectively. For the same compound, the microsomal CLint was > 300 µL/min/mg in data set [4] and 112 µL/min/mg in data set [5].
Regarding `O=C(NCC1(N2CCOCC2)CCCCCC1)N1CCC(c2nc(-c3ccc4ccccc4n3)no2)CC1`, the IC50 turned out to be 480 nM in data set [1], 330 nM in data set [2] and 240 nM in data set [3].
For `O=C(NCC(c1ccncc1)N1CCOCC1)N1CCC(c2nc(-c3ccc4ccccc4n3)no2)CC1` (stereo not given) the same measures were 17000 nM, 8200 nM and 8600 nM.
For `O=C(NCC1(N2CCCCC2)CCCC1)N1CCC(c2nc(-c3ccc4ccccc4n3)no2)CC1`, the IC50 in data set [1] worked out at 51 nM; in data set [2], 100 nM; in data set [3], 46 nM. In addition, the microsomal CLint worked out at 160 µL/min/mg in data set [4] and 49 µL/min/mg in data set [5]. The clearance in data set [7] was > 100 mL/min/kg.
Usually logD stands for lipophilicity at a set pH, counting ionised and neutral species. A high value points to higher lipophilicity. As to `O=C(NCC1(N2CCOCC2)CCCC1)N1CCC(c2nc(-c3ccc4ccccc4n3)no2)CC1`, the IC50 amounted to 100 nM in data set [1], 10000 nM in data set [6], 46 nM in data set [2] and 30 nM in data set [3]. Also, the microsomal CLint in data set [4] was > 500 µL/min/mg; in data set [5] it was > 400 µL/min/mg. The logD in data set [8] was 2.62.
Regarding `CN1CCN(C2(CNC(=O)N3CCC(c4nc(-c5ccc6ccccc6n5)no4)CC3)CCCC2)CC1`, the values for the concentration for half-maximal inhibition (IC50) in data set [1], in data set [2] and in data set [3] were 400 nM, 450 nM and 510 nM, respectively.
Turning to `Cn1c(-c2noc(N3CCN(C(=O)NCC4(N5CCCCC5)CCCC4)CC3)n2)nc2ccccc21`, the IC50 was found to be 6 nM in data set [1], 4 nM in data set [2] and 5 nM in data set [3].
For the compound `O=C(NCC1(N2CCC(F)CC2)CCCC1)N1CCC(c2nc(-c3ccc4ccccc4n3)no2)CC1`, the IC50 was found to be 200 nM in data set [1], 90 nM in data set [2] and 110 nM in data set [3].
For the compound `COC1CCN(C2(CNC(=O)N3CCC(c4nc(-c5ccc6ccccc6n5)no4)CC3)CCCC2)CC1`, the IC50 was determined as 530 nM in data set [1], 260 nM in data set [2] and 210 nM in data set [3].
For `O=C(NCC1(N2CCOCC2)CCCC1)N1CCN(c2nc(-c3ccc4ccccc4n3)no2)CC1` the same measures were 15 nM, 16 nM and 10 nM.
For the compound `O=C(NCC1(N2CCCC2)CCCC1)N1CCC(c2nc(-c3ccc4ccccc4n3)no2)CC1`, the IC50 in data set [1] stood at 42 nM; in data set [6], 7100 nM; in data set [2], 69 nM; in data set [3], 32 nM. The microsomal CLint was found to be 100 µL/min/mg in data set [4] and 52 µL/min/mg in data set [5].
On to `CN(C)C1(CNC(=O)N2CCC(c3nc(-c4ccc5ccccc5n4)no3)CC2)CCCC1`, for which the IC50 is 370 nM in data set [1], 38000 nM in data set [6], 310 nM in data set [2] and 300 nM in data set [3]. Also, the microsomal CLint in data set [4] turned out to be 27 µL/min/mg; in data set [5], 40 µL/min/mg.
Consider `O=C(NCC1(N2CCC(F)(F)CC2)CCCC1)N1CCC(c2nc(-c3ccc4ccccc4n3)no2)CC1`, for which the values for the IC50 in data set [1], in data set [2] and in data set [3] were 950 nM, 100 nM and 180 nM, respectively.
Taken in the same sequence, the figures for `CCN1CCCCC1CNC(=O)N1CCC(c2nc(-c3ccc4ccccc4n3)no2)CC1` (stereo not given) were 80 nM, 130 nM and 64 nM.
Taken in the same sequence, the figures for `O=C(NCCN1CCOCC1)N1CCC(c2nc(-c3ccc4ccccc4n3)no2)CC1` were 3400 nM, 2500 nM and 4900 nM.
In the case of `CCN1CCCC1CNC(=O)N1CCC(c2nc(-c3ccc4ccccc4n3)no2)CC1` (stereo not given), the concentration for half-maximal inhibition (IC50) in data set [1] was found to be 490 nM; in data set [3], 290 nM.
In the case of `O=C(NC1CCC(F)(F)CC1)N1CCN(c2nc(-c3ccc4ccccc4n3)no2)CC1`, the IC50 in data set [1] was 13 nM; in data set [2], 5 nM; in data set [3], 13 nM.
On to `CCNC1(CNC(=O)N2CCC(c3nc(-c4ccc5ccccc5n4)no3)CC2)CCCC1`, for which the concentration for half-maximal inhibition (IC50) in data set [1] was 91 nM; in data set [6] it was 24000 nM; in data set [2], 88 nM; in data set [3] it was 46 nM. Besides, the values for the microsomal CLint in data set [4] and in data set [5] were 51 µL/min/mg and 7 µL/min/mg, respectively.
